“Also recorded” adds a separate entry of the source. Bridges are numbered along the chain shown (N, C = ends). Where no end group is shown, it is not given here. [ ]: non-standard residue; d: D form.
B1: saposin D: human saposin produced by proteolytic cleavage of prosaposin (protein, UniProt P07602 405-486, looked up)
Saposin-D: DGGFCEVCKKLVGYLDRNLEKNSTKQEILAALEKGCSFLPDPYQKQCDQFVAEYEPVLIEILVEVMDPSFVCLKIGACPSAH
modifications: Saposin-D
notes: human saposin produced by proteolytic cleavage of prosaposin
B2: saposin A: human saposin produced by proteolytic cleavage of prosaposin (protein, UniProt P07602 60-142, looked up)
Saposin-A: SLPCDICKDVVTAAGDMLKDNATEEEILVYLEKTCDWLPKPNMSASCKEIVDSYLPVILDIIKGEMSRPGEVCSALNLCESLQ
modifications: Saposin-A
notes: as for B1
B3: saposin C: human saposin produced by proteolytic cleavage of prosaposin (protein, UniProt P07602 311-390, looked up)
Saposin-C: SDVYCEVCEFLVKEVTKLIDNNKTEKEILDAFDKMCSKLPKSLSEECQEVVDTYGSSILSILLEEVSPELVCSMLHLCSG
modifications: Saposin-C
notes: as for B1
B4: human saposin B: human saposin produced by proteolytic cleavage of prosaposin (protein, UniProt P07602 195-273, looked up)
Saposin-B: GDVCQDCIQMVTDIQTAVRTNSTFVQALVEHVKEECDRLGPGMADICKNYISQYSEIAIQMMMHMQPKEICALVGFCDE
modifications: Saposin-B
notes: as for B1

Key:
[1] = system: frozen-thawed rooster sperm binding to an extract of hen's egg membrane; assay: In vitro microwell sperm-egg binding assay, sperm treated with peptides (fluorescent plate reader); assay type: cell-based; conditions: for Activity relative to SEQ ID NO: 1 / Biological activity / sperm binding capability (in words) / Peptide concentration which, after tenfold dilution of the sperm suspension, provided maximum binding / Concentration at which binding activity was induced (active at): frozen-thawed rooster sperm; for Peptide concentration which, after tenfold dilution of the sperm suspension, provided maximum binding: hen's egg membrane extract in microwell plate
Text: The biological activity of the native UPSEBP prepared from rooster sperm and synthetic amino acid sequences were compared in an in vitro assay of sperm binding described in copending U.S. patent application Ser. No. 08/234,448. This microwell assay used plates in which the wells were coated with a binding substrate prepared from an extract of hen's egg vitelline membrane. The thawed rooster sperm, known to be reduced in UPSEBP, were washed once with isotonic salt solutions, resuspended at 50×10^5/0.1 ml, and incubated 30 minutes with 0.02-50 μg/0.5 ml native UPSEBP or synthetic peptide. Then 0.1 ml of a suspension of about 5×10^6 sperm were placed into each of triplicate wells in a microwell plate. After 2 hours of incubation at 37° C., unbound sperm were washed away and bound sperm were stained and counted using a microscope. The number of sperm bound was considered to be a measure of biological activity because there is a high correlation between the number of rooster sperm bound in vitro to such an egg extract and the fertilizing potential of sperm in that sample, as quantified by the percentage of eggs hatching young chicks after artificial insemination. Table No. 1 presents the amino acid sequence of synthetic peptides and the resulting binding capacity as compared to native UPSEBP (full sequence not provided). Initial evaluations of the capabilities of SEQ ID NO:1 through SEQ ID NO:11, native UPSEBP and rat SGP-1 to enhance sperm binding to an egg-membrane substrate were based on visual counts of bound sperm and conducted over a number of months. The binding data for SEQ ID NO:1 through SEQ ID NO:12 and native UPSEBP and rat SGP-1 presented in Table No. 1 were obtained as two data sets using a recent version of that sperm-egg binding assay in which the bound sperm were stained with a fluorescent dye binding to DNA and quantified using a fluorescent microwell-plate reader, by techniques known to those skilled in the art. The amino acid sequences of portions of human prosaposin (SEQ ID NO:15) and mouse prosaposin (SEQ ID NO:16) also are as shown. [table]

[2] = system: frozen-thawed rooster sperm; assay: Restoration of binding capability of frozen-thawed rooster sperm to hen's egg membrane extract (Examples 1, 2, 6, 7); assay type: cell-based; conditions: FIG. 2
Text: Although the invention has been described generally above, particular examples give additional illustration of the products and method steps typical of the present polypeptide and uses thereof. The data presented in FIGS. 1 to 3 and 6 to 9 show the number of sperm bound per unit area of laid hen's egg perivitelline membrane, or data derived from such binding, or bound to a substrate prepared using an extract from such perivitelline membranes pursuant to the method disclosed in co-pending patent application Ser. No. 08/234,448. Except when noted, native protein extracted from rooster sperm with UPSEBP activity was used.
Freshly collected rooster sperm were cryopreserved, thawed and processed to remove glycerol. One portion of the thawed sperm received crude UPSEBP at a concentration of 2 μg protein per 10^6 sperm. Samples containing 1-10×10^6 sperm were placed into wells coated with an extract of hen's egg membrane and incubated 180 minutes. Non-bound sperm were removed by washing, and bound sperm were stained with diamido-2-phenylindole and counted using an epifluorescent microscope.
Rooster sperm subjected to a cryopreservation cycle were treated with increasing amounts of partially purified UPSEBP and subject to a standard binding assay, together with aliquots of unfrozen (fresh) sperm.
Frozen-thawed turkey sperm were exposed to rooster UPSEBP or semi-purified SGP-1.

Molecule	Activity relative to SEQ ID NO: 1 [1]	Biological activity / sperm binding capability (in words) [1]	Peptide concentration which, after tenfold dilution of the sperm suspension, provided maximum binding [1]	also measured
SEQ ID NO:4: Table 1 sequence: Gln-Pro-Gln-Pro-Lys-Ala-Asn-Glu-Asp-Val-Cys-Gln-Asp-Cys-Met (QPQPKANEDVCQDCM; Addition of amino acids distal to the terminal asparagine of SEQ ID NO 3 does not substantially change biological activity.)	0.002	did not substantially change biological activity	85 nmol	–
SEQ ID NO:12 linear form: SEQ ID NO:12 as synthesized, 60 amino acid molecule (CQSLQEYLAEQNQRQLESNKIPEVDLARVVAPFMSNIPLLLYPQDRPRSQPQPKANEDVC; Synthetic peptide embodying the complete intervening sequence between rat saposin A and saposin B.)	–	substantial biological activity	–	Potency relative to SEQ ID NO:9 [1]: approximately 90 times; Concentration at which binding activity was induced (active at) [1]: 2 pM
SEQ ID NO:10: Table 1 sequence: L-Leu-Tyr-Pro-Gln-Asp-Arg-Thr-Arg-Ser-Gln-Pro-Gln-Pro-Lys-Ala-Asn (LYPQDRTRSQPQPKAN; L-amino acids; SITE 1 L-isomer)	0.94	greater than that of SEQ ID NO:11; also recorded: reduced activity relative to SEQ ID NO:1	8.8 nmol	–
SEQ ID NO:6: Table 1 sequence: Tyr-Pro-Gln-Asp-Arg-Thr-Arg-Ser-Gln-Pro-Gln-Cys (YPQDRTRSQPQC; Replacement of the terminal proline of SEQ ID NO 2 with a cysteine does not substantially change biological activity.)	0.0005	minimal change in biological activity relative to SEQ ID NO:2	370 nmol	–
SEQ ID NO:12 hairpin form: SEQ ID NO:12 modified by induced oxidation of the SH-groups to a closed loop (CQSLQEYLAEQNQRQLESNKIPEVDLARVVAPFMSNIPLLLYPQDRPRSQPQPKANEDVC; disulfide 1-60 (inferred))	–	enhanced biological activity	–	Activity relative to the linear form of SEQ ID NO:12 [1]: 5 times; Potency relative to SEQ ID NO:1 [1]: 425 times; Concentration at which binding activity was induced (active at) [1]: 0.4 pM
YPQDRTRSQPQPKAN [SEQ ID NO:1]	1	greater biological activity than SEQ ID NO:2 through SEQ ID NO:8	3.17 nmol	Biological activity / sperm binding capability (in words) ([1]; listed as SEQ NO:1): substantial binding activity; Number of sperm bound to the egg membrane substrate ([1]; nanomolar concentrations of peptide): approximately twice as many sperm bound
SEQ ID NO:8: Table 1 sequence: Phe-Phe-Tyr-Pro-Gln-Asp-Arg-Thr-Arg-Ser-Gln-Pro-Gln-Pro (FFYPQDRTRSQPQP; Addition of a phenylalanine group to the NH2 end of SEQ ID NO 2 does not substantially suppress biological activity.)	0.002	did not suppress biological activity relative to SEQ ID NO:2	100 nmol	–
SEQ ID NO:5: Table 1 sequence: Pro-Gln-Pro-Lys-Ala-Asn-Glu-Asp-Val-Cys-Gln-Asp-Cys-Met-Lys-Leu-Val-Thr-Asp (PQPKANEDVCQDCMKLVTD; Addition of amino acids distal to the terminal asparagine of SEQ ID NO 3 does not substantially change biological activity.)	0.0003	–	510 nmol	–
SEQ ID NO:7: Table 1 sequence: Acetyl-Tyr-Pro-Gln-Asp-Arg-Thr-Arg-Ser-Gln-Pro-Gln-Pro (Ac-YPQDRTRSQPQP)	0.003	did not suppress biological activity relative to SEQ ID NO:2	50 nmol	–
CQSLQEYLAEQNQRQLESNKIPEVDLARVVAPFMSNIPLLLYPQDRPRSQPQPKANEDVC (cysteine pairing not given here) [SEQ ID NO:12]	–	conferred substantial binding activity especially when oxidized to form a molecule with a hairpin form	–	–
SEQ ID NO:11: Table 1 sequence: D-Leu-Tyr-Pro-Gln-Asp-Arg-Thr-Arg-Ser-Gln-Pro-Gln-Pro-Lys-Ala-Asn ([dL]YPQDRTRSQPQPKAN)	0.001	reduced activity relative to SEQ ID NO:1	25 nmol	–
YPQDRPRSQPQPKAN [SEQ ID NO:9]	0.94	substantial binding activity; also recorded: very high biological activity, approximately equal to that of SEQ ID NO:1	0.18 nmol	–
SEQ ID NO:2: Table 1 sequence: Tyr-Pro-Gln-Asp-Arg-Thr-Arg-Ser-Gln-Pro-Gln-Pro (YPQDRTRSQPQP; Portion of SEQ ID NO 1 showing lower binding capability.)	0.0006	lower binding capability	300 nmol	–
SEQ ID NO:3: Table 1 sequence: Gln-Pro-Gln-Pro-Lys-Ala-Asn (QPQPKAN; Portion of SEQ ID NO 1 essentially devoid of binding capability.)	0.0001	essentially devoid of binding capability	2,125 nanomoles	–
B1	–	–	–	Restoration of binding (in words) [2]: ineffective at restoring binding
B2	–	–	–	Restoration of binding (in words) [2]: ineffective at restoring binding
B3	–	–	–	Restoration of binding (in words) [2]: ineffective at restoring binding
B4	–	–	–	Binding restored, percent of that obtained by exposure to UPSEBP ([2]; UPSEBP 2 μg/million sperm): about 70%

From patent USRE39034E1, “Molecule involved in binding of sperm to egg surfaces and procedures for use of this molecule to enhance or decrease potential fertility” (The Penn State Research Foundation, priority 1996, dated 2006)
